In US20240270821A1, “GIP/GLP1/GCG TRI-RECEPTOR AGONISTS AND USES THEREOF” (priority 2023, published 2024):
Read-outs that look alike come from different tables or passages of the source. Marks after values point to notes of the source that are not given here. Starred links: 1 amine or outer side, 2 acyl side, 3 side chain; linkers in the order of their positions; H or OH if unused. Non-standard residues stand in square brackets, D forms with d. Residues, ends and D or L forms follow the SMILES beside them. Groups on a side chain read outwards from the residue. *: point of attachment. C20 diacid = O=C(O)CCCCCCCCCCCCCCCCCCC(=O)*; C18 diacid = O=C(O)CCCCCCCCCCCCCCCCC(=O)*; αMePhe(2-F) = C[C@](N)(Cc1ccccc1F)C(=O)O; γGlu = O=C(O)[C@H](CCC(=O)[*:2])N[*:1]; αMe4Pal = C[C@](N)(Cc1ccncc1)C(=O)O; αMeY = C[C@](N)(Cc1ccc(O)cc1)C(=O)O; 4Pal = N[C@@H](Cc1ccncc1)C(=O)O; αMeL = CC(C)C[C@](C)(N)C(=O)O; αMeS = C[C@](N)(CO)C(=O)O; Orn = NCCC[C@H](N)C(=O)O; AEEA = NCCOCCOCC(=O)O; Aib = CC(C)(N)C(=O)O

What was measured:
hGcgR = hGcgR (Homo sapiens, UniProt P47871); assay: Functional cAMP activation in the presence of 0.1% casein (no HSA); format: cell-based; conditions: read-out: Relative cAMP EC50, hGcgR;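 further: intracellular cAMP rise after 30 min at 37 °C, read by HTRF against a cAMP standard curve, scaled from buffer only (0%) to maximal control ligand response (100%)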
hGcgR, sequence (P47871 26-477): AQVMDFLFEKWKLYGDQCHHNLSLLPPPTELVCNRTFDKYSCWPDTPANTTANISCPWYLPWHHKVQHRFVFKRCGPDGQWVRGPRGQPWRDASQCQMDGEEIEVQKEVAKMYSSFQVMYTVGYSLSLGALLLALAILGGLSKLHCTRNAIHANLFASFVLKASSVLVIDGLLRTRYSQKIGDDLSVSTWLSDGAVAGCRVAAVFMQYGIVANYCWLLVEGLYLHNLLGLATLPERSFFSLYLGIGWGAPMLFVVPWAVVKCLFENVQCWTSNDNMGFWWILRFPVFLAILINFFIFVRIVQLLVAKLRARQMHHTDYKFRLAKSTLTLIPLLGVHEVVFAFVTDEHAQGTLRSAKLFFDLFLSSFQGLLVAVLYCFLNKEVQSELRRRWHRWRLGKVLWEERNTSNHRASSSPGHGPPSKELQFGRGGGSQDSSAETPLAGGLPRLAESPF

hGLP-1R [1] = biological target: T1, hGLP-1R (Homo sapiens, UniProt P43220); assay: GLP-1R CHO cell β-arrestin recruitment assay; format: cell-based; design: host or cells: CHO-K1 (PathHunter, assay-ready frozen cells); conditions: for EC50: CHO-K1 PathHunter, β-arrestin-2, 0.1% casein, read-out: hGLP1R β-arrestin Rel EC50; for % Stimulation Max: normalized to GLP-1(7-36) as maximum control;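 on all read-outs here: luminescence read after 90 min peptide exposure at 37 °C and a further 60 min with detection reagent at room temperature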
Target sequence in this assay (P43220 24-463): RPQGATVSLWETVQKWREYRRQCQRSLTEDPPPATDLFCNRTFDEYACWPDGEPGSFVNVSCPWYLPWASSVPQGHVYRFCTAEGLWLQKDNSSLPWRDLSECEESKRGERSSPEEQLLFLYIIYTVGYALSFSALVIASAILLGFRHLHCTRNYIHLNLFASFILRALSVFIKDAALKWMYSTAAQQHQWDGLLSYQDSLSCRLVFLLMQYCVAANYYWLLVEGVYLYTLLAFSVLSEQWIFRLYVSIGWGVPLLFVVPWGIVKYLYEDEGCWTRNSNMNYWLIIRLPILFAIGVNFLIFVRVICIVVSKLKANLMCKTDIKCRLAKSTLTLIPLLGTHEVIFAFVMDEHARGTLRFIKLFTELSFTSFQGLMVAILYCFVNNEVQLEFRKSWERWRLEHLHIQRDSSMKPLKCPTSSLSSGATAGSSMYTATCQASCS
Target sequence in this assay (P32121 whole entry partner): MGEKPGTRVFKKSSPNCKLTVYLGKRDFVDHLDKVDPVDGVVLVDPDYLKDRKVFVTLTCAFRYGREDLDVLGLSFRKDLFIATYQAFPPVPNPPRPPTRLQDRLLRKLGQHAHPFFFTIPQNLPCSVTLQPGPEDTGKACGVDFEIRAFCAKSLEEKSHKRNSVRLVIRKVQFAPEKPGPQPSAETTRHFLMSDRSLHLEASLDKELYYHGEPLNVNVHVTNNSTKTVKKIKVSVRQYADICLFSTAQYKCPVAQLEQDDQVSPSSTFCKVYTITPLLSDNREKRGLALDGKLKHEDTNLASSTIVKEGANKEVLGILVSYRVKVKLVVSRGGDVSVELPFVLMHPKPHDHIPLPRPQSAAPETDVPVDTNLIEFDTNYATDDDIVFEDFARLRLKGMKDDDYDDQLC

human GLP1-R = human GLP1-R (Homo sapiens, UniProt P43220); assay: GLP1-R internalization assay in HEK293 cells; format: cell-based; conditions: for EC50: HEK293 cells expressing SNAP-GLP-1R, read-out: GLP1R Internalization EC50; for Internalization % TOP: normalized to maximum concentration of GLP-1 (100%)
human GLP1-R, sequence (P43220 24-463): as the sequence (P43220 24-463) above

hGLP-1R [2] = biological target: T1, hGLP-1R; assay: Functional cAMP activity in the presence of 1% HSA; format: cell-based; conditions: read-out: cAMP Rel EC50, hGLP-1R
Target sequence in this assay (P43220 24-463): as above

hGIPR [3] = biological target: T2, hGIPR (Homo sapiens, UniProt P48546); assay: Functional cAMP activation in the presence of 0.1% casein (no HSA); format: cell-based; conditions: read-out: Relative cAMP EC50, hGIPR;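 further: intracellular cAMP rise after 30 min at 37 °C read by HTRF against a standard curve, scaled between buffer alone (0%) and top control ligand concentration (100%), four-parameter fit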
T2 sequence (P48546 22-466): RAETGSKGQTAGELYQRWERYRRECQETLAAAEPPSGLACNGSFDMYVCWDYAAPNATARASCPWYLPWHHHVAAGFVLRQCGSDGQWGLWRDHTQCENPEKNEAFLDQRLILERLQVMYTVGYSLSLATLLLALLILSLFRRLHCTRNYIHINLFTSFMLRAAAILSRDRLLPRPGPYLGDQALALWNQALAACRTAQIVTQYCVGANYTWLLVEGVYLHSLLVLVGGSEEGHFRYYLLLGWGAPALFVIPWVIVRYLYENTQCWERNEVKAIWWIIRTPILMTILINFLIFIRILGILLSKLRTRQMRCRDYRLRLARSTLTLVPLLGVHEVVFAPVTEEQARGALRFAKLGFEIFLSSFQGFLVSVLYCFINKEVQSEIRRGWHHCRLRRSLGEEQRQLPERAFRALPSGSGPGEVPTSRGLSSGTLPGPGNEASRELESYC
Method: After a 30-minute incubation at 37° C., the resulting increase in intracellular cAMP is quantitatively determined using the CisBio CAMP Dynamic 2 HTRF Assay Kit (62AM4PEJ). Briefly, cAMP levels within the cell are detected by adding the cAMP-d2 conjugate in cell lysis buffer followed by the antibody anti-cAMP-Eu^3+-Cryptate, also in cell lysis buffer.
Intracellular cAMP levels are determined by extrapolation using a standard curve. Dose response curves of compounds are plotted as the percentage of stimulation normalized to minimum (buffer only) and maximum (maximum concentration of each control ligand) values and analyzed using a four parameter non-linear regression fit with a variable slope (Genedata Screener 13). EC50 is the concentration of compound causing half-maximal simulation in a dose response curve. Each relative EC50 value for the Geometric mean calculation is determined from a curve fitting.

[4] = Body weight in diet-induced obese C57BL/6 mice; format: in vivo; conditions: percent of starting weight, DIO mice, mean ± SEM n=5
Outline: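 Male C57BL/6 DIO mice (41-50 g, 5 per group, randomized by weight) on calorie-rich diet received subcutaneous doses 30-90 min before dark onset, QD or Q3D for 9-16 days. Body weight measured daily, expressed as percent of starting weight, mean±SEM.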

hGLP-1R [5] = biological target: T1, hGLP-1R; assay: Functional cAMP activation in the presence of 0.1% casein (no HSA); format: cell-based; conditions: read-out: Relative cAMP EC50, hGLP-1R;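 further: intracellular cAMP rise after 30 min at 37 °C read by HTRF, normalized between buffer only (0%) and maximal control ligand (100%), four-parameter variable-slope fit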
Target sequence in this assay (P43220 24-463): as the sequence (P43220 24-463) above

hGIPR [6] = biological target: T2, hGIPR; assay: Functional cAMP activity in the presence of 1% HSA; format: cell-based; conditions: read-out: cAMP Rel EC50, hGIPR
human GcgR = human GcgR (Homo sapiens, UniProt P47871); assay: Functional cAMP activity in the presence of 1% HSA; format: cell-based; conditions: read-out: cAMP Rel EC50, hGcgR
human GcgR, sequence (P47871 26-477): as the sequence (P47871 26-477) above

[7] = Pepsin stability assay in simulated gastric fluid; format: in vitro ADME; conditions: pH 1.2, % Intact (SD)
Method: A pepsin stability assay is utilized to determine the relative stability of Example polypeptides in a simulated gastric proteolytic environment. […] The relative amount of intact peptide is quantified by mass spectrometry (MS). […] The examples were dissolved in 50 mM Tris buffer pH 8.0 at a concentration of 10 mg/mL as a stock solution. Pepsin A was reconstituted in SGF at 10 mg/mL. […] The example peptide and pepsin solutions were then incubated at 37° C. in a shaking incubator set at 100 rpm. Samples (25 μL) were withdrawn at different time intervals and quenched with 100 mM ammonium bicarbonate pH 9 (50 μL) to stop proteolytic activity. All samples were centrifuged, and the supernatants were analyzed by LC/MS to determine the remaining intact peptide.

[8] = in the presence of 0.1% casein (no HSA), geometric mean

| Molecule | EC50 (hGcgR; [8]) [nM] | EC50 (hGLP-1R [1]) [nM] | % Stimulation Max (hGLP-1R [1]) [%] | EC50 (human GLP1-R) [nM] | Internalization % TOP (human GLP1-R) [%] | EC50 (hGLP-1R [2]) [nM] | EC50 (hGIPR [3]; [8]) [nM] | Body weight (%) ([4]; 10 nmol/kg SC Q3D, 14 days) | EC50 (hGLP-1R [5]; [8]) [nM] | EC50 (hGIPR [6]) [nM] | EC50 (human GcgR) [nM] | Body weight (%) ([4]; 10 nmol/kg SC QD, 16 days) | remaining at 0.25 h, 0.4 mg/mL [7] [%] | remaining at 0.5 h, 0.4 mg/mL [7] [%] | remaining at 1 h, 0.4 mg/mL [7] [%] | EC50 (hGcgR) [nM] | EC50 (hGIPR [3]) [nM] | EC50 (hGLP-1R [5]) [nM] |
| --- | --- | --- | --- | --- | --- | --- | --- | --- | --- | --- | --- | --- | --- | --- | --- | --- | --- | --- |
| H-Y[Aib]QGTFTSDFSI[αMeL]LDKK([AEEA-γGlu-C20 diacid])AQ[Aib]AFIEYLLEGGPSSGEPPPSEG-NH2 [Example 288] | 5.17 | 16.3 | 18 | 30.3 | 72.4 | 616 | 0.234 | 86.18 ± 0.67 % | 1.89 | 59.1 | 3580 |  |  |  |  |  |  |  |
| H-Y[Aib]QGT[αMePhe(2-F)]TSDYSILLDKIAAK([AEEA-γGlu-C20 diacid])AFIEYLIEGGPSSGEPPPSEG-NH2 [Example 296] | 1.72 | 14 | 55.2 | 19.2 | 87.2 | 171 | 0.0806 |  | 0.536 | 21.8 | 517 | 49.64 ± 1.97 |  |  |  |  |  |  |
| H-Y[Aib]QGT[αMePhe(2-F)]TSD[4Pal][αMeS]I[αMeL]LD[Orn]K([AEEA-γGlu-C18 diacid])AQ[αMe4Pal]EFI[dE][αMeY]LIEGGPSSGEPPPSGTGE-NH2 [Example 711] |  |  |  |  |  | 35.2 |  |  |  | 0.786 | 197 |  | 95 | 91.6 | 91.9 | 1.29 | 0.00861 | 0.355 |
| H-Y[Aib]QGTFTSD[4Pal]SQ[αMeL]LD[Orn]K([dE-γGlu-C18 diacid])AQ[αMe4Pal]EFI[dE][αMeY]LIAGGPSSGAPPPSGSEEE-NH2 [Example 1235] |  |  |  |  |  |  |  |  |  |  |  |  | 1.4 | 0 | 0 |  |  |  |
| H-Y[Aib]QGT[αMePhe(2-F)]TSDYSKLLDKIAQK([AEEA-γGlu-C20 diacid])AFIEYLLEGGPSSGEPPPSEG-NH2 [Example 295] | 2.15 | 16.4 | 44.1 | 31.4 | 88.4 | 232 | 0.126 |  | 0.831 | 61.1 | 605 | 51.58 ± 3.24 |  |  |  |  |  |  |
| H-Y[Aib]QGTFTSDFSK[αMeL]LDKK([AEEA-γGlu-C20 diacid])AQ[Aib]AFIEYLLAGGPSSGEPPPSEE-NH2 [Example 4] | 3.2 | 23.2 | 15.8 | 49.1 | 67.8 | 869 | 0.192 | 83.00 +/− 0.88**** % | 1.66 | 62.3 | 1580 |  |  |  |  |  |  |  |
| H-Y[Aib]QGT[αMePhe(2-F)]TSD[4Pal]SI[αMeL]LD[Orn]K([AEEA-γGlu-C18 diacid])AQ[αMe4Pal][Orn]FIE[αMeY]LIEGGPSSGEPPPEGT-NH2 [Example 505] |  |  |  |  |  | 39 |  |  |  | 2.1 | 92 |  | 91.6 | 78.9 | 53.5 | 0.445 | 0.00707 | 0.205 |
| H-Y[Aib]QGT[αMePhe(2-F)]TSD[4Pal][αMeS]I[αMeL]LD[Orn]K([AEEA-γGlu-C18 diacid])AQ[αMe4Pal]EFI[dE][αMeY]LIEGGPSSGEPPPSGGGE-NH2 [Example 742] |  |  |  |  |  | 33.3 |  |  |  | 0.857 | 203 |  | 100 | 113 | 103 | 1.25 | 0.00688 | 0.266 |
| CC[C@H](C)[C@H](NC(=O)[C@H](CC(C)C)NC(=O)[C@](C)(Cc1ccc(O)cc1)NC(=O)[C@@H](CCC(=O)O)NC(=O)[C@@H](NC(=O)[C@H](Cc1ccccc1)NC(=O)[C@@H](NC(=O)C(C)(C)NC(=O)[C@H](CCC(N)=O)NC(=O)[C@H](C)NC(=O)[C@H](CCCCNC(=O)COCCOCCNC(=O)CC[C@H](NC(=O)CCCCCCCCCCCCCCCCC(=O)O)C(=O)O)NC(=O)[C@H](CCCN)NC(=O)[C@H](CC(=O)O)NC(=O)[C@H](CC(C)C)NC(=O)[C@](C)(CC(C)C)NC(=O)[C@@H](NC(=O)[C@](C)(CO)NC(=O)[C@H](Cc1ccncc1)NC(=O)[C@H](CC(=O)O)NC(=O)[C@H](CO)NC(=O)[C@@H](NC(=O)[C@](C)(Cc1ccccc1F)NC(=O)[C@@H](NC(=O)CNC(=O)[C@H](CCC(N)=O)NC(=O)C(C)(C)NC(=O)[C@@H](N)Cc1ccc(O)cc1)[C@@H](C)O)[C@@H](C)O)[C@@H](C)CC)[C@@H](C)O)[C@@H](C)CC)C(=O)N[C@@H](CCC(=O)O)C(=O)NCC(=O)NCC(=O)N1CCC[C@H]1C(=O)N[C@@H](CO)C(=O)N[C@@H](CO)C(=O)NCC(=O)N[C@@H](CCC(=O)O)C(=O)N1CCC[C@H]1C(=O)N1CCC[C@H]1C(=O)N1CCC[C@H]1C(=O)N[C@@H](CCC(=O)O)C(N)=O [Example 457] (H-Y[Aib]QGT[αMePhe(2-F)]TSD[4Pal][αMeS]I[αMeL]LD[Orn]K([AEEA-γGlu-C18 diacid])AQ[Aib]TFI[dE][αMeY]LIEGGPSSGEPPPE-NH2) |  |  |  |  |  | 11.7 |  |  |  | 0.881 | 333 |  | 78.8 | 68.9 | 60.1 | 2.86 | 0.00918 | 0.226 |
| H-Y[Aib]QGTFTSDYSK[αMeL]LDKK([AEEA-γGlu-C20 diacid])AQQAFVQWLIEGGPSSGEPPPSEG-NH2 [Example 315] | 4.05 | 3.76 | 29.7 |  |  | 140 | 0.398 | 79.76 +/− 1.72**** % | 0.508 | 85.1 | 1560 |  |  |  |  |  |  |  |
